In PubChem BioAssay (NCI):
Several values for one entry are separate records, joined by “and”; a condition that tells them apart may be missing. Equal entries are not always repeated.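 Where inhibition never reached the appropriate level, the endpoint shown equals the highest concentration tested. Otherwise, values were interpolated linearly from a five-concentration, 48-hour dose response in 96-well plates. Here, GI50 denotes the concentration required for 50% inhibition of growth. TGI marks complete inhibition of growth.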

Assays:
Test in all cases: NCI-60 cell line screen, 48 h
[1] = test system: MALME-3M melanoma
[2] = test system: SK-MEL-5 melanoma
[3] = test system: SK-OV-3 ovarian
[4] = test system: UACC-257 melanoma
[5] = test system: HCT-15 colon
[6] = test system: NCI-H23 lung
[7] = test system: CCRF-CEM leukemia
[8] = test system: SK-MEL-2 melanoma
[9] = test system: MDA-MB-435
[10] = test system: NCI/ADR-RES ovarian

Compound	TGI [1]	TGI [2]	TGI [3]	TGI [4]	TGI [5]	TGI [6]	TGI [7]	TGI [8]	GI50 [1]	GI50 [2]	GI50 [3]	GI50 [4]	GI50 [8]	GI50 [5]	GI50 [9]	TGI [9]	GI50 [7]	GI50 [6]	GI50 [10]	TGI [10]
CC(=O)N1CCN(C=S)CC1	> 100 µM	> 100 µM	> 100 µM	> 100 µM	> 100 µM	> 100 µM	> 100 µM	–	–	–	–	–	–	–	–	–	–	–	–	–
CCC12C=CCN3CCC4(C(=C(C(=O)OC)C1)Nc1ccccc14)[C@H]32 (stereo not given in full)	> 100 µM	> 100 µM	49.7 µM	> 100 µM	> 100 µM	93.6 µM	79.5 µM	52 µM	–	–	–	–	–	–	–	–	–	–	–	–
N#CC1([N+](=O)[O-])C=C1c1ccccc1 (stereo not given)	> 100 µM	> 100 µM	> 100 µM	> 100 µM	> 100 µM	> 100 µM	72.2 µM	> 100 µM	–	–	–	–	–	–	–	–	–	–	–	–
COC(=O)C(C(=O)C(=O)Nc1ccc(N)cc1[N+](=O)[O-])c1nc2ccc(Cl)cc2[nH]c1=O (stereo not given)	> 100 µM	> 100 µM	> 100 µM	> 100 µM	> 100 µM	> 100 µM	> 100 µM	> 100 µM	–	–	–	–	–	–	–	–	–	–	–	–
N#CCCn1c(CCC(=O)Nc2ccc(Cl)cc2Cl)n[nH]c1=S	> 100 µM	> 100 µM	> 100 µM	> 100 µM	> 100 µM	> 100 µM	> 100 µM	> 100 µM	–	–	–	–	–	–	–	–	–	–	–	–
NC(=S)N=Nc1c(O)[nH]c2ccccc12	753 µM	651 µM	431 µM	> 1000 µM	470 µM	–	> 1000 µM	> 1000 µM	310 µM	55.5 µM and 201 µM	209 µM	804 µM	296 µM	139 µM	925 µM	> 1000 µM	253 µM	–	–	–
CCCCCCC(=O)CC(=O)C(=O)Nc1ccccc1C	> 100 µM	> 100 µM	> 100 µM	> 100 µM	> 66.3 µM	> 100 µM	> 100 µM	> 100 µM	–	–	–	–	–	–	–	–	–	–	–	–
Nc1nc(Cl)c2ncn(Cc3ccc(-c4ccc(CCl)cc4)cc3)c2n1	–	18.9 µM	> 100 µM	15.2 µM	–	19.9 µM	–	> 100 µM	–	4.42 µM	37.1 µM	3.24 µM	33.9 µM	–	14.6 µM	36.3 µM	–	5.6 µM	10.4 µM	34.3 µM
COn1cc(C(=O)N=C(SC)SC)c2ccccc21	–	34.4 µM	> 100 µM	59.2 µM	62.5 µM	60.3 µM	91 µM	52 µM	–	15.7 µM	50.6 µM	18.2 µM	17.6 µM	22.4 µM	14 µM	39.7 µM	22.3 µM	27.2 µM	18.2 µM	42.5 µM
O=C1OC(=O)C2C1C1C(c3ccccc3)=C(c3ccccc3)C2(O)C2C(=O)OC(=O)C12 (stereo not given)	> 100 µM	–	> 100 µM	> 100 µM	> 100 µM	> 100 µM	> 100 µM	> 100 µM	–	–	–	–	–	–	–	–	–	–	–	–
C/C(=N\NS(=O)(=O)c1ccccc1)c1ccc[n+]([O-])n1	–	> 100 µM	> 100 µM	> 100 µM	> 100 µM	> 100 µM	64.6 µM	–	–	–	–	–	–	–	–	–	–	–	–	–
O=C(O)CSc1nnc2c3ccccc3c3ccccc3c2n1	> 100 µM	> 100 µM	> 100 µM	> 100 µM	> 100 µM	> 100 µM	–	> 100 µM	–	–	–	–	–	–	–	> 100 µM	–	–	–	> 100 µM
Nc1nc(N)c(-c2ccc(Cl)cc2)c(/C=C/c2ccc([N+](=O)[O-])cc2)n1	–	> 100 µM	56.4 µM	> 100 µM	> 100 µM	> 100 µM	> 100 µM	67.2 µM	–	3.83 µM	19.2 µM	7.51 µM	18.6 µM	3.97 µM	4.44 µM	> 100 µM	6.17 µM	13.3 µM	7.99 µM	> 100 µM
N#CC(CC(=O)O)=C(c1ccccc1)c1ccccc1	> 100 µM	> 100 µM	> 100 µM	> 100 µM	> 100 µM	> 100 µM	–	> 100 µM	–	–	–	–	–	–	–	> 100 µM	–	–	–	> 100 µM
CN(C)c1ccc(/C=c2\sc3nnc(Cc4ccccc4)n3c2=O)cc1	> 100 µM	> 100 µM	> 100 µM	> 100 µM	> 10 µM and 37.8 µM	> 100 µM	> 100 µM	> 100 µM	> 100 µM	> 100 µM	> 100 µM	> 100 µM	> 100 µM	> 10 µM	–	–	> 100 µM	> 100 µM	–	–
COc1ccc(CNC(=O)c2c(C)n([O-])c3cc(F)c(F)cc3[n+]2=O)cc1	26.8 µM	25.3 µM	27.9 µM	23.6 µM	3.43 µM	10.6 µM	12.4 µM	29.5 µM	11.2 µM	12.7 µM	14.8 µM	10.4 µM	15.4 µM	1.77 µM	–	–	3.2 µM	2.38 µM	17 µM	31.6 µM
C=C1CC(CC(=O)C(C)CC2CC(=C)C(=O)O2)OC1=O (stereo not given)	28.4 µM	> 100 µM	> 100 µM	30.7 µM	36.7 µM	35.8 µM	26.8 µM	25.3 µM	–	–	–	–	–	–	–	–	–	–	–	–
CN(C)c1ccc(/C=N/NC(=O)c2cnc3ccccc3c2)cc1	> 100 µM	> 100 µM	> 100 µM	> 100 µM	> 100 µM	> 100 µM	–	> 100 µM	–	–	–	–	–	–	–	34.5 µM	–	–	–	> 100 µM
CCc1cccc(CC)c1NC(=O)C1=CNC(C)=C(C(=O)Nc2c(CC)cccc2CC)C1c1ccc(O)c(OC)c1 (stereo not given)	> 100 µM	> 100 µM	> 100 µM	92.7 µM	–	> 100 µM	61 µM	91.8 µM	–	–	–	–	–	–	–	–	–	–	–	–
O=C1CC2OCC=C3CN4CCC56c7ccccc7N1C5C2C3CC46 (stereo not given) (tested in a mixture with another compound)	> 50 µg/mL	> 50 µg/mL	> 50 µg/mL	> 50 µg/mL	> 50 µg/mL	> 50 µg/mL	–	> 50 µg/mL	> 50 µg/mL	> 50 µg/mL	> 50 µg/mL	> 50 µg/mL	> 50 µg/mL	> 50 µg/mL	> 50 µg/mL	> 50 µg/mL	–	> 50 µg/mL	> 50 µg/mL	> 50 µg/mL
